Key:
Gerbillinae [1] = experiment: Compound was evaluated for the inhibition of GR 73632-induced foot tapping in gerbils after intravenous administration at 0 (initial) hour; assay type: functional; details: read-out: ID50 (the source's name)
Gerbillinae [2] = experiment: Compound was evaluated for the inhibition of GR 73632-induced foot tapping in gerbils after intravenous administration at 2 hour; assay type: functional; details: read-out: ID50 (the source's name)
Gerbillinae [3] = experiment: Compound was evaluated for the inhibition of GR 73632-induced foot tapping in gerbils after intravenous administration at 24 hr; assay type: functional; details: read-out: ID50 (the source's name)
[4] = target: Voltage-gated inwardly rectifying potassium channel KCNH2 (Homo sapiens, UniProt Q12809); experiment: Compound was evaluated for the displacement of labelled MK-499 from the cloned channel expressed in HEK cells (Ikr channel); assay type: cell-based, HEK293
Substance-P receptor = Substance-P receptor (Homo sapiens, UniProt P25103); experiment: Displacement of [125 I] -labelled substance P from the cloned Tachykinin receptor 1 expressed in CHO cells; assay type: cell-based
Gerbillinae [5] = experiment: Compound was evaluated for the inhibition of GR 73632-induced foot tapping in gerbils 2 hour after oral administration; assay type: functional; details: read-out: ID50 (the source's name)
Gerbillinae [6] = experiment: Compound was evaluated for the inhibition of GR 73632-induced foot tapping in gerbils after intravenous administration at 24 hr at a concentration of 3 mg/kg; assay type: functional
[7] = Bioavailability in rat; assay type: ADME, organism-based; details: in vivo
Gerbillinae [8] = experiment: Compound was evaluated for the inhibition of GR 73632-induced foot tapping in gerbils after intravenous administration; assay type: functional; details: read-out: ID50 (the source's name)
Gerbillinae [9] = experiment: Compound was evaluated for the inhibition of GR 73632-induced foot tapping in gerbils after intravenous administration at 2 hour at a dose 3 mg/kg iv; assay type: functional

Chain of Substance-P receptor (P25103 whole entry): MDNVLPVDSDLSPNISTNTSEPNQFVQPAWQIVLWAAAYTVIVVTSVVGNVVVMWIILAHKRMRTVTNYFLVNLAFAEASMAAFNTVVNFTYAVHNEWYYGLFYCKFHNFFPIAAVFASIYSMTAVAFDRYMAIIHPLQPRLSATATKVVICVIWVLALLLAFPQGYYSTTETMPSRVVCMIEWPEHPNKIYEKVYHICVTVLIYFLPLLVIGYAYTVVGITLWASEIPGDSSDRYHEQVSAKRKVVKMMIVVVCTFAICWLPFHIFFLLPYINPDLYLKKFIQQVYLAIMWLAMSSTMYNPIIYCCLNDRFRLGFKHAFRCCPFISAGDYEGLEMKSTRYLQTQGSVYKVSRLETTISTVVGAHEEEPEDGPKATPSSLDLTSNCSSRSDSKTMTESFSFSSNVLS
Chain of Voltage-gated inwardly rectifying potassium channel KCNH2 (Q12809 whole entry): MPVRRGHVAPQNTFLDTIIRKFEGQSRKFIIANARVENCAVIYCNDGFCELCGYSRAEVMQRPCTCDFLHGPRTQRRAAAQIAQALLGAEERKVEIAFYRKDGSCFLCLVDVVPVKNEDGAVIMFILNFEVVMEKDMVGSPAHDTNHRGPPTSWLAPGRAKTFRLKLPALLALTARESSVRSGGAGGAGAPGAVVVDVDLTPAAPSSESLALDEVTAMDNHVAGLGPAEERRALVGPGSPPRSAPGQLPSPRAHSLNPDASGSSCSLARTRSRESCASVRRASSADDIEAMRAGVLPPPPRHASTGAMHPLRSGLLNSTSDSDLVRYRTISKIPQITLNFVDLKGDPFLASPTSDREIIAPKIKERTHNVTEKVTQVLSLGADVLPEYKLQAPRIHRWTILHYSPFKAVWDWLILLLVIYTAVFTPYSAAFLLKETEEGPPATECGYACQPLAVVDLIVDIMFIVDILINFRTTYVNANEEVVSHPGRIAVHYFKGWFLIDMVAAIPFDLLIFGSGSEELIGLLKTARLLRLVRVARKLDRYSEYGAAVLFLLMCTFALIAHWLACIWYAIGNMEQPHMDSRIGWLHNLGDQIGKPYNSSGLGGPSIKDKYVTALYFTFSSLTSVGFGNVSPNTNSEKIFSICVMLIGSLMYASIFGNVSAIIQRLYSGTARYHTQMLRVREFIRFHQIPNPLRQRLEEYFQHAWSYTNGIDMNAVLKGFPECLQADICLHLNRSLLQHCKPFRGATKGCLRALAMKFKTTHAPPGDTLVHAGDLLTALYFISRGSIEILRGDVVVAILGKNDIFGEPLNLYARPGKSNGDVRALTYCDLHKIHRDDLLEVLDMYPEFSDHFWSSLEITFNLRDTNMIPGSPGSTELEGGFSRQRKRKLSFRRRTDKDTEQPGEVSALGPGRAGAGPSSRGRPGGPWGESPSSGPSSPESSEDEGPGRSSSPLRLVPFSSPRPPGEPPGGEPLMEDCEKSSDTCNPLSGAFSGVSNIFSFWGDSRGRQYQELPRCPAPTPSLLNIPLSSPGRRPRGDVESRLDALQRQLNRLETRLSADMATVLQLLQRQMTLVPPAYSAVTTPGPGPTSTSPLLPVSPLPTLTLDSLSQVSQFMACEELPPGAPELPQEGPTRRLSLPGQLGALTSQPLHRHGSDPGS

Structure (SMILES)	IC50 (Substance-P receptor) [nM]	Ki [4] [nM]	further results
CC(C(=O)N[C@]1(c2ccccc2)CC[C@@H](N2CCC(c3ccc(F)cc3)CC2)CC1)c1cc(C(F)(F)F)cc(C(F)(F)F)c1 (some centres not stated)		43	ED50 (Gerbillinae [1]): 1.7 mg/kg; ED50 (Gerbillinae [2]): 0.6 mg/kg; ED50 (Gerbillinae [3]): 1.8 mg/kg
CC(C(=O)N[C@]1(c2ccccc2)CC[C@H](N2CCCCC2)CC1)c1cc(C(F)(F)F)cc(C(F)(F)F)c1 (some centres not stated)	2.4		
CC(C(=O)N[C@]1(c2ccccc2)CC[C@H](N(C)C)CC1)c1cc(C(F)(F)F)cc(C(F)(F)F)c1 (some centres not stated)	22		
CC1CCN([C@H]2CC[C@](NC(=O)C(C)c3cc(C(F)(F)F)cc(C(F)(F)F)c3)(c3ccccc3)CC2)CC1 (some centres not stated)	1.2	460	
CC(C(=O)NC1(c2ccccc2)CCC(N2CCC3(CCC(=O)O3)CC2)CC1)c1cc(C(F)(F)F)cc(C(F)(F)F)c1 (configuration not stated)	2.1	400	
CC(C(=O)NC1(c2ccccc2)CCC(N2CCC3(CCOC3=O)CC2)CC1)c1cc(C(F)(F)F)cc(C(F)(F)F)c1 (configuration not stated)	0.42	490	
CC(C(=O)N[C@]1(c2ccccc2)CC[C@@H](N2CCC(O)CC2)CC1)c1cc(C(F)(F)F)cc(C(F)(F)F)c1 (some centres not stated)	0.85	1400	
CC(C(=O)N[C@]1(c2ccccc2)CC[C@@H](N2CCC(=O)CC2)CC1)c1cc(C(F)(F)F)cc(C(F)(F)F)c1 (some centres not stated)	1.6		
CC(C(=O)N[C@]1(c2ccccc2)CC[C@@H](N2CCN(C(C)C)CC2)CC1)c1cc(C(F)(F)F)cc(C(F)(F)F)c1 (some centres not stated)	0.39		

Second part, led by results:

IC50 (Substance-P receptor) [nM]	Structure (SMILES)	Ki [4] [nM]	further results
0.22	CC(C(=O)NC1(c2ccccc2)CCC(N2CCC3(CCCO3)CC2)CC1)c1cc(C(F)(F)F)cc(C(F)(F)F)c1 (configuration not stated)	730	ED50 (Gerbillinae [2]): 0.7 mg/kg; ED50 (Gerbillinae [3]): 3.1 mg/kg
0.33	CC(C(=O)NC1(c2ccccc2)CCC(N2CCC(O)(Cc3ccccc3)CC2)CC1)c1cc(C(F)(F)F)cc(C(F)(F)F)c1 (configuration not stated)	260	
0.3	CC(C(=O)N[C@]1(c2ccccc2)CC[C@@H](N2CCC3(CC2)OCCO3)CC1)c1cc(C(F)(F)F)cc(C(F)(F)F)c1 (some centres not stated)		ED50 (Gerbillinae [3]): 5.4 mg/kg
0.34	CC(C(=O)NC1(c2ccccc2)CCC(N2CCC3(CCOC3)CC2)CC1)c1cc(C(F)(F)F)cc(C(F)(F)F)c1 (configuration not stated)		ED50 (Gerbillinae [1]): 1.4 mg/kg; ED50 (Gerbillinae [2]): 1.1 mg/kg; ED50 (Gerbillinae [3]): 1.6 mg/kg; ED50 (Gerbillinae [5]): 2.2 mg/kg
0.35	CC(C(=O)NC1(c2ccccc2)CCC(N2CCC3(CC2)CCC(C)(C)O3)CC1)c1cc(C(F)(F)F)cc(C(F)(F)F)c1 (configuration not stated)	950	ED50 (Gerbillinae [2]): 1 mg/kg; inhibition in vivo at 3 mg/kg (Gerbillinae [6]): 72%
0.34	O=C(NCc1cc(C(F)(F)F)cc(C(F)(F)F)c1)[C@]1(c2ccccc2)CC[C@@H](N2CCC(c3ccc(F)cc3)CC2)CC1		bioavailability [7]: 70%; ED50 (Gerbillinae [8]): 1.9 mg/kg; inhibition in vivo at 3 mg/kg (Gerbillinae [9]): 15%

Reference: ChEMBL document CHEMBL1135170, “4,4-Disubstituted cyclohexylamine NK(1) receptor antagonists II” (Bioorg Med Chem Lett, 2002)
